From ChEMBL document CHEMBL1909046, “DrugMatrix in vitro pharmacology data” come the findings set out here.

The structures appear in SMILES notation.

In assay [1] the target is Sodium-dependent dopamine transporter (Homo sapiens, UniProt Q01959). Nature of the assay: DRUGMATRIX: Dopamine Transporter radioligand binding (ligand: [125I] RTI-55). The assay is classed as cell membranes, CHO-K1, Membrane. The conditions noted are these: Not Active = under 50% inhibition at 10 µM.
Assay [2] deals with 5-hydroxytryptamine receptor 4 (Cavia porcellus, UniProt O70528). The assay is classed as cell membranes, Dunkin-Hartley, Striatum, Membrane. The following applies: for Ki: read-out: Ki.
Chain of 5-hydroxytryptamine receptor 4 (O70528 whole entry): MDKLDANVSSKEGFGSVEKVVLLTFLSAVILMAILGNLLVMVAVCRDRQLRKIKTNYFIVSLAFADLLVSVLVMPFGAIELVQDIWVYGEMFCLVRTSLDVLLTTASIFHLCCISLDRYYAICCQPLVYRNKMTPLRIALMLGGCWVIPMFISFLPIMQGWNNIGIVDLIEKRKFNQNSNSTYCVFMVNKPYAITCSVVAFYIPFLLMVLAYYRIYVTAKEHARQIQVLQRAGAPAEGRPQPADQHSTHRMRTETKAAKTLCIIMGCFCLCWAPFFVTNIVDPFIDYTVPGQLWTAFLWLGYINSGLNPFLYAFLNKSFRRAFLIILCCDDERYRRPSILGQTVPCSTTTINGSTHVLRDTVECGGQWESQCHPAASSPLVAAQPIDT
Assay [3] concerns the target D(1A) dopamine receptor (Homo sapiens, UniProt P21728). The assay can be described thus: DRUGMATRIX: Dopamine D1 radioligand binding (ligand: [3H] SCH-23390). The following applies: cho; Not Active = under 50% inhibition at 10 µM. The assay is classed as cell membranes, Membrane.
Assay [4] concerns the target T1, Neutrophil elastase (Homo sapiens, UniProt P08246).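 Further: inhibition of neutrophil elastase enzyme activity, measured with a p-nitroanilide-linked peptide substrate; in other assays of this panel Not Active means under 50% inhibition at 10 µM.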
T1 sequence (P08246 whole entry): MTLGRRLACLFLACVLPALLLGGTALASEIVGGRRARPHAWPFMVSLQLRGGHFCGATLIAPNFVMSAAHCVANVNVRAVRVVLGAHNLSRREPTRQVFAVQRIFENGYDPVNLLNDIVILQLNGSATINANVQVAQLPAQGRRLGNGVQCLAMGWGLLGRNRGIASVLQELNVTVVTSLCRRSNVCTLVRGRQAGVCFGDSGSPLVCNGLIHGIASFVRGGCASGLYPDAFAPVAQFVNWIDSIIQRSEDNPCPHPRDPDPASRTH
The assay is classed as tissue-based.

In assay [5] the target is T2, Caspase-1 (Homo sapiens, UniProt P29466).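 Further: Caspase-1 enzyme inhibition assay with a peptide substrate; in other assays of this panel Not Active means under 50% inhibition at 10 µM.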
T2 sequence (P29466 whole entry): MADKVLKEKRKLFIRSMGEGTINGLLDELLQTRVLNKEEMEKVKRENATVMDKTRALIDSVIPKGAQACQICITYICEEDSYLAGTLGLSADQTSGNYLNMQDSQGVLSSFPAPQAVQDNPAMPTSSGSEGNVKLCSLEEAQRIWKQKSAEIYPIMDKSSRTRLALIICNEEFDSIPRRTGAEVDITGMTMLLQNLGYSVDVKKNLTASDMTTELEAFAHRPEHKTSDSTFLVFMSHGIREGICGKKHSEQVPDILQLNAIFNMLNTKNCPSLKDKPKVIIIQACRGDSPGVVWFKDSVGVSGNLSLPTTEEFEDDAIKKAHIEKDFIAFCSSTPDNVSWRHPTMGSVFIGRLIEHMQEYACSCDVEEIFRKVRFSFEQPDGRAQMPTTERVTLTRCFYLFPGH
Further details: species or system Escherichia coli.

Assay [6] is described as follows: DRUGMATRIX: Phosphodiesterase PDE3 enzyme inhibition (substrate: [3H]cAMP + cAMP). The following applies: platelet; Not Active = under 50% inhibition at 10 µM. The assay is classed as tissue-based, Homo sapiens.

Chain of D(1A) dopamine receptor (P21728 whole entry): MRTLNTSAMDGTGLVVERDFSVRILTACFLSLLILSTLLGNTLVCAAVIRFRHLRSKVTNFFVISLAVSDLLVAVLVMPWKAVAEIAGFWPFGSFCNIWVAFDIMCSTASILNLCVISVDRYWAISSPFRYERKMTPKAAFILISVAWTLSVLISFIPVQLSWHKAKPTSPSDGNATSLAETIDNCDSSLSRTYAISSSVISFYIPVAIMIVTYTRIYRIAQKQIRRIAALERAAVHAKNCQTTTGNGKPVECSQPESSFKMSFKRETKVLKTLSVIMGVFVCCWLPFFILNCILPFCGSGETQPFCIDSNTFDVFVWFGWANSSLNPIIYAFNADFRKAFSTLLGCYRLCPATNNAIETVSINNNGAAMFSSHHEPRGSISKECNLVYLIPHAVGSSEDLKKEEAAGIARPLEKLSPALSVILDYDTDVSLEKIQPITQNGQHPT
Chain of Sodium-dependent dopamine transporter (Q01959 whole entry): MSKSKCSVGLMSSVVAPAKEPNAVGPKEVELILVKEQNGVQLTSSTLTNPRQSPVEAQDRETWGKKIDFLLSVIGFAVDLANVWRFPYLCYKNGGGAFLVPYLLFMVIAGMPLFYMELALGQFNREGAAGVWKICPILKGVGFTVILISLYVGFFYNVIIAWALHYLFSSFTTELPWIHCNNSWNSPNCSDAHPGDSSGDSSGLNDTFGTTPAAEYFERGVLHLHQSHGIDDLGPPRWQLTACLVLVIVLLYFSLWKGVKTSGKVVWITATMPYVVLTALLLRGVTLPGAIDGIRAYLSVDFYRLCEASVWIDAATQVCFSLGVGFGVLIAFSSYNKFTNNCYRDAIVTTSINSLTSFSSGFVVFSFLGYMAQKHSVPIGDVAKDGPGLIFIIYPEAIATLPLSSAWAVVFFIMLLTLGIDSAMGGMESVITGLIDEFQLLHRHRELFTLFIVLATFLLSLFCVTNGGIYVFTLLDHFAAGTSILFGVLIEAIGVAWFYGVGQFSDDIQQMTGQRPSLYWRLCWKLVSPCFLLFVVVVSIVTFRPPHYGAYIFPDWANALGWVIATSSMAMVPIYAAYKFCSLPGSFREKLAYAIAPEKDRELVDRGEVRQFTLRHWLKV

For `O=C(N[C@H](CO)[C@H](O)c1ccc([N+](=O)[O-])cc1)C(Cl)Cl` [CHLORAMPHENICOL], the half-inhibitory concentration (IC50) result in assay [1] (cho-k1), in assay [2], in assay [3], in assay [4], in assay [5] and in assay [6] was “Not Active” each time. Also, the Ki (commonly a measure of affinity in units of concentration, obtained from inhibition or displacement) in assay [6] was “Not Active”.
Regarding `ClC(Cl)Cl` [CHLOROFORM], the IC50 entry in assay [1] (cho-k1), in assay [2], in assay [3], in assay [4], in assay [5] and in assay [6] was “Not Active” throughout. Also, in assay [6], the Ki result is recorded as “Not Active”.
For the molecule `C=C1CC[C@H](O)C/C1=C/C=C1\CCC[C@]2(C)[C@@H]([C@H](C)CCCC(C)C)CC[C@@H]12` [CHOLECALCIFEROL], the IC50 result in assay [1] (cho-k1), in assay [2], in assay [3], in assay [4], in assay [5] and in assay [6] was “Not Active” in each case. In addition, the inhibition constant (Ki) result in assay [6] is reported as “Not Active”.
As to `C[N+](C)(C)CCO.[Cl-]` [CHOLINE CHLORIDE], the IC50 entry in assay [1] (cho-k1), in assay [2], in assay [3], in assay [4], in assay [5] and in assay [6] was “Not Active” in each case. Besides, the Ki entry in assay [6] is “Not Active”.
`CCOC(=O)C(C)(C)Oc1ccc(Cl)cc1` [CLOFIBRATE]: the IC50 result in assay [1] (cho-k1), in assay [2], in assay [3], in assay [4], in assay [5] and in assay [6] was “Not Active” each time. In addition, the Ki entry in assay [6] was “Not Active”.
Consider `CC(=O)OCC(=O)[C@@]1(O)CC[C@H]2[C@@H]3CCC4=CC(=O)CC[C@]4(C)[C@H]3C(=O)C[C@@]21C` [CORTISONE ACETATE], for which the IC50 result in assay [1] (cho-k1), in assay [2], in assay [3], in assay [4], in assay [5] and in assay [6] was “Not Active” throughout. Moreover, the Ki entry in assay [6] is reported as “Not Active”.
For the molecule `O=c1ccc2ccccc2o1` [COUMARIN], the half-maximal inhibitory concentration (IC50) result in assay [1] (cho-k1), in assay [2], in assay [3], in assay [4], in assay [5] and in assay [6] was “Not Active” throughout. For the same molecule, the Ki entry in assay [6] is “Not Active”.
With `C[C@@H]1C[C@@H]([C@H](O)CC2CC(=O)NC(=O)C2)C(=O)[C@@H](C)C1` [CYCLOHEXIMIDE], the IC50 entry in assay [1] (cho-k1), in assay [2], in assay [3], in assay [4], in assay [5] and in assay [6] was “Not Active” each time. The inhibition constant (Ki) entry in assay [6] was “Not Active”.
For `C/C=C/C[C@@H](C)[C@@H](O)[C@H]1C(=O)N[C@@H](CC)C(=O)N(C)CC(=O)N(C)[C@@H](CC(C)C)C(=O)N[C@@H](C(C)C)C(=O)N(C)[C@@H](CC(C)C)C(=O)N[C@@H](C)C(=O)N[C@H](C)C(=O)N(C)[C@@H](CC(C)C)C(=O)N(C)[C@@H](CC(C)C)C(=O)N(C)[C@@H](C(C)C)C(=O)N1C` [CYCLOSPORINE], the IC50 entry in assay [1] (cho-k1), in assay [2], in assay [3], in assay [4], in assay [5] and in assay [6] was “Not Active” throughout. For the same molecule, in assay [6], the inhibition constant Ki entry is “Not Active”.
Turning to `CN(C)/N=N/c1[nH]cnc1C(N)=O` [DACARBAZINE], the IC50 entry in assay [1] (cho-k1), in assay [2], in assay [3], in assay [4], in assay [5] and in assay [6] was “Not Active” in each case. Also, in assay [6], the Ki entry was “Not Active”.
For `COc1ccc2c(c1)[C@]13CCCC[C@@H]1[C@H](C2)N(C)CC3` [DEXTROMETHORPHAN], the IC50 entry in assay [1] (cho-k1), in assay [2], in assay [3], in assay [4], in assay [5] and in assay [6] was “Not Active” throughout. Also, in assay [6], the Ki result is “Not Active”.
As for `CC(=O)Nc1c(I)c(NC(C)=O)c(I)c(C(=O)O)c1I` [DIATRIZOIC ACID], the IC50 result in assay [1] (cho-k1), in assay [2], in assay [3], in assay [4], in assay [5] and in assay [6] was “Not Active” throughout. Moreover, in assay [6], the Ki result is “Not Active”.
Consider `COP(=O)(OC)OC=C(Cl)Cl` [DICHLORVOS], for which the IC50 result in assay [1] (cho-k1), in assay [2], in assay [3], in assay [4], in assay [5] and in assay [6] was “Not Active” each time. Further, the Ki result in assay [6] is given as “Not Active”.
Regarding `O=C(O)Cc1ccccc1Nc1c(Cl)cccc1Cl` [DICLOFENAC], the IC50 result in assay [1] (cho-k1), in assay [2], in assay [3], in assay [4], in assay [5] and in assay [6] was “Not Active” in each case. Further, the Ki result in assay [6] is recorded as “Not Active”.
As for `C[C@H]1O[C@@H](O[C@H]2[C@@H](O)C[C@H](O[C@H]3[C@@H](O)C[C@H](O[C@H]4CC[C@@]5(C)[C@H](CC[C@@H]6[C@@H]5CC[C@]5(C)[C@@H](C7=CC(=O)OC7)CC[C@]65O)C4)O[C@@H]3C)O[C@@H]2C)C[C@H](O)[C@@H]1O` [DIGITOXIN], the 50% inhibitory concentration (IC50) result in assay [1] (cho-k1), in assay [2], in assay [3], in assay [4], in assay [5] and in assay [6] was “Not Active” in each case. Moreover, the inhibitory constant (Ki) result in assay [6] is given as “Not Active”.
Take `CCN1CC(CCN2CCOCC2)C(c2ccccc2)(c2ccccc2)C1=O` (configuration not stated) [DOXAPRAM]: the IC50 result in assay [1] (cho-k1), in assay [2], in assay [3], in assay [4], in assay [5] and in assay [6] was “Not Active” each time. In addition, the Ki result in assay [6] is reported as “Not Active”.
For `Cn1c(=O)c2c(ncn2CC2OCCO2)n(C)c1=O` [DOXOFYLLINE], the IC50 result in assay [1] (cho-k1), in assay [2], in assay [3], in assay [4], in assay [5] and in assay [6] was “Not Active” throughout. In addition, the Ki entry in assay [6] is recorded as “Not Active”.
`COc1cccc2c1C(=O)c1c(O)c3c(c(O)c1C2=O)C[C@@](O)(C(=O)CO)C[C@@H]3O[C@H]1C[C@H](N)[C@H](O)[C@H](C)O1` [DOXORUBICIN]: the IC50 (in general, the concentration needed to halve the response being measured) is “Not Active” in assay [1] (cho-k1); 12.5 µM in assay [2] (read-out: IC50); “Not Active” in assay [3]; “Not Active” in assay [4]; 12.2 µM in assay [5] (read-out: IC50); “Not Active” in assay [6]. Besides, the figures for the Ki in assay [2] and in assay [6] were 2.08 µM and “Not Active”, respectively.
`COc1cccc2c1C(=O)c1c(O)c3c(c(O)c1C2=O)C[C@@](O)(C(=O)CO)C[C@@H]3O[C@H]1C[C@H](N)[C@@H](O)[C@H](C)O1` [EPIRUBICIN]: the IC50 result was “Not Active” in assay [1] (cho-k1); 7.94 µM in assay [2] (read-out: IC50); “Not Active” in assay [3]; “Not Active” in assay [4]; “Not Active” in assay [5]; “Not Active” in assay [6]. In addition, the figures for the Ki in assay [2] and in assay [6] were 1.32 µM and “Not Active”, respectively.
Regarding `C[C@]12CC[C@@H]3c4ccc(OC(=O)c5ccccc5)cc4CC[C@H]3[C@@H]1CC[C@@H]2O` [ESTRADIOL BENZOATE], the IC50 result in assay [1] (cho-k1), in assay [2], in assay [3], in assay [4], in assay [5] and in assay [6] was “Not Active” in each case. In assay [6], the inhibition constant (Ki) entry is “Not Active”.
Take `C[C@]12CC[C@@H]3c4ccc(O)cc4CC[C@H]3[C@@H]1CC[C@@H]2O` [ESTRADIOL]: the IC50 in assay [1] (read-out: IC50) is 14.9 µM; in assay [2], “Not Active”; in assay [3], “Not Active”; in assay [4], “Not Active”; in assay [5], “Not Active”; in assay [6], “Not Active”. Besides, the Ki is 11.8 µM in assay [1] (read-out: Ki) and “Not Active” in assay [6].
In the case of `CC[C@@H](CO)NCCN[C@@H](CC)CO` [ETHAMBUTOL], the IC50 result in assay [1] (cho-k1), in assay [2], in assay [3], in assay [4], in assay [5] and in assay [6] was “Not Active” throughout. The Ki entry in assay [6] is reported as “Not Active”.
